# Literature values as cited in US9198430B2, “Anti-parasitic composition comprising a macrocyclic lactone and levamisole and method of treatment of parasitic infestation” (BAYER NEW ZEALAND LIMITED, priority 2011, dated 2015).
# Where two headings read alike, the source gives them in different places.
# Details: unlabelled doramectin 0.2 mg/kg bodyweight
smiles,measurement,setting,value
"CO[C@H]1C[C@H](O[C@H]2[C@H](C)O[C@@H](O[C@@H]3/C(C)=C/C[C@@H]4C[C@@H](C[C@]5(C=C[C@H](C)[C@@H](C6CCCCC6)O5)O4)OC(=O)[C@@H]4C=C(C)[C@@H](O)[C@H]5OC/C(=C\C=C\[C@@H]3C)[C@]54O)C[C@@H]2OC)O[C@@H](C)[C@@H]1O [doramectin, Doramectin]","Residues of Doramectin, Fat",Day 21,182 µg/kg
same,"Residues of Doramectin, Injection (site)",Day 21,1900 µg/kg
same,"Residues of Doramectin, Kidney",Day 21,11 µg/kg
same,"Residues of Doramectin, Liver",Day 21,107 µg/kg
same,"Residues of Doramectin, Muscle",Day 21,<7 µg/kg
same,"Residues of Doramectin, Fat",Day 28,94 µg/kg
same,"Residues of Doramectin, Injection (site)",Day 28,380 µg/kg
same,"Residues of Doramectin, Kidney",Day 28,8.8 µg/kg
same,"Residues of Doramectin, Liver",Day 28,66 µg/kg
same,"Residues of Doramectin, Muscle",Day 28,<4 µg/kg
same,"Residues of Doramectin, Fat",Day 35,57 µg/kg
same,"Residues of Doramectin, Injection (site)",Day 35,930 µg/kg
same,"Residues of Doramectin, Kidney",Day 35,<4.5 µg/kg
same,"Residues of Doramectin, Liver",Day 35,29 µg/kg
same,"Residues of Doramectin, Muscle",Day 35,<3 µg/kg
